Experimental data from US8426592B2, “Histone deacetylases, and uses related thereto” (President and Fellows of Harvard College, priority 1996, dated 2013).
Where two headings read alike, the source gives them in different places. Non-standard residues stand in square brackets, D forms with d. Residues, ends and D or L forms follow the SMILES beside them. Aoe = N[C@@H](CCCCCC(=O)[C@@H]1CO1)C(=O)O

What was measured:
[1] = system: histone deacetylase; experiment: Histone deacetylase assay, release of [3H]acetic acid from [3H]acetylated histone H4 (1-24) peptide; assay type: biochemical; conditions: 20 nM; crude or partially purified (Mono Q) bovine thymus nuclear enzyme; pretreatment 30 min at 4° C.
Method: Nuclear proteins from bovine thymus were precipitated with ammonium sulfate and fractionated on a Mono Q column. […] For the histone deacetylase assay, a peptide corresponding to bovine histone H4 (1-24) was synthesized. The peptide was chemically acetylated with sodium [^3H]acetate (5.3 Ci/mmol, New England Nuclear)/BOP reagent (Aldrich) and purified by reverse phase HPLC. Two microliters of [^3H]peptide (˜40,000 dpm) were used per […] assay. After incubation at 37° C. for one hour, the reaction was quenched with 1 M HCl/0.16 M acetic acid (50 μl). Released [^3H]acetic acid was extracted with 600 μl of ethyl acetate and quantified by scintillation counting. […] A280=absorbance at 280 n.
Briefly, thymocytes (˜12 g) prepared from fresh bovine thymus were homgenized in hypotonic lysis buffer [20 mM tris (pH 7.8), 20 mM NaCl, 1 mM EDTA, 10% glycerol, 1 mM PMSF, 1 mM benzamidine, 10 μg/ml each of pepstatin, aprotinin, and leupeptin] by mechanical disruption and the nuclei were isolated by centrifugation at 3000 g. Nuclei were resuspended in lysis buffer and the proteins were extracted with 0.4 M ammonium sulfate. The viscous lysate was sonicated and clarified by centrifugation at 100,000 g for one hour. Proteins were then precipitated with 90% saturated ammonium sulfate and recovered by centrifugation (100,000 g, one hour). […]

[2] = system: bovine p46-p50; experiment: Binding of bovine thymus nuclear proteins to K-trap affinity matrix in presence of inhibitors, silver stained gel; conditions: incubation in presence of inhibitor
Method: Nuclear proteins from human Jurkat T cells were prepared identically to those from bovine thymus (FIG. 1B). Molecular size standards (in kilodaltons) are indicated to the right.
K-trap was deprotected with Pd(Ph3P)4 and coupled to an activated agarose matrix (FIG. 2A). […] Bound polypeptides were eluted by boiling the matrix in 1% SDS buffer and separated b polyacrylamide gel electrophoresis.

[3] = system: trapoxin binding protein; experiment: Trapoxin binding, charcoal precipitation assay with [3H]trapoxin; conditions: simultaneous addition, bovine thymus extracts
[4] = system: mammalian cells; conditions: cited from earlier work; for gene expression and differentiation: certain mammalian cell lines; for cell cycle arrest: mammalian cells
[5] = system: histone deacetylase; conditions: cited from earlier work; for histone deacetylation: cultured mammalian cells, fractioned cell extracts
[6] = target: T1, recombinant HD1-F (Homo sapiens, UniProt Q13547); experiment: Interaction between recombinant HD1-F and K-trap affinity matrix, immunoblot; assay type: binding; conditions: lysates of transfected Jurkat cells
T1 construct: expressed in transfected cells; host or cells: Tag Jurkat cells, electroporated with pBJ5/HD1-F
Method: Lysates from Jurkat cells transfected with pBJ5/HD1-F were incubated with the K-trap affinity matrix in the presence or absence of inhibitors. Immunoblots of the eluted proteins were probed with the anti-FLAG M2 monoclonal antibody (IBI).

[7] = target: T2, HD1 (Homo sapiens, UniProt Q13547); experiment: Histone deacetylase activity of anti-HD1(467-482) immunoprecipitates from Jurkat nuclear extract; assay type: biochemical; conditions: endogenous HD1 from Jurkat crude nuclear extracts
T2 construct: endogenous in cells; host or cells: Jurkat T cells (nuclear extract)
Method: After resuspending the immunoprecipitates in HDx buffer [20 mM tris (pH 8), 150 mM NaCl, 10% glycerol], inhibitors were added as indicated, and histone deacetylase activity was measured as described in FIG. 1A.
We used affinity purified antibodies directed against a COOH-terminal peptide (amino acids 467 to 482) to immunoprecipitate HD1 from crude nuclear extracts.

[8] = target: T3, HD1 and RbAp48 (Homo sapiens, UniProt Q13547); experiment: Immunoblot of proteins eluted from K-trap affinity matrix; assay type: binding, bovine and human; conditions: affinity purification in presence of inhibitor
T3 construct: endogenous in cells; host or cells: Jurkat nuclear extract (the same blot also carries bovine thymus nuclear proteins)
From the text: Proteins eluted from the K-trap affinity matrix (FIG. 2) were separated by SDS-PAGE and transferred to Immobilon-P (Millipore). Blots were probed with polyclonal anti-HD1 (319-336) or monoclonal anti-RbAp48 and bound antibodies were detected with enhanced chemiluminescence (Amersham).
To determine the relationship between the proteins from bovine thymus (p46-p50) and the proteins isolated from human Jurkat T cells (p50 and p55), an antiserum was generated against a peptide specified by the HD1 open reading frame (FIG. 3A, amino acids […]).

[9] = target: T4, recombinant FLAG epitope tagged HD1 (HD1-F) (Homo sapiens, UniProt Q13547); experiment: Histone deacetylase activity of anti-FLAG immunoprecipitates of recombinant HD1-F; assay type: biochemical; conditions: Jurkat cells transfected with pBJ5/HD1-F
T4 construct: expressed in transfected cells; host or cells: Tag Jurkat cells, electroporated with pBJ5/HD1-F
Method: Anti-FLAG antibodies conjugated to agarose beads (IBI) were used to immunoprecipitate recombinant HD1 in the presence or absence of FLAG peptide competitor, and histone deacetylase activity was measured as described above.

T2 sequence (Q13547 whole entry): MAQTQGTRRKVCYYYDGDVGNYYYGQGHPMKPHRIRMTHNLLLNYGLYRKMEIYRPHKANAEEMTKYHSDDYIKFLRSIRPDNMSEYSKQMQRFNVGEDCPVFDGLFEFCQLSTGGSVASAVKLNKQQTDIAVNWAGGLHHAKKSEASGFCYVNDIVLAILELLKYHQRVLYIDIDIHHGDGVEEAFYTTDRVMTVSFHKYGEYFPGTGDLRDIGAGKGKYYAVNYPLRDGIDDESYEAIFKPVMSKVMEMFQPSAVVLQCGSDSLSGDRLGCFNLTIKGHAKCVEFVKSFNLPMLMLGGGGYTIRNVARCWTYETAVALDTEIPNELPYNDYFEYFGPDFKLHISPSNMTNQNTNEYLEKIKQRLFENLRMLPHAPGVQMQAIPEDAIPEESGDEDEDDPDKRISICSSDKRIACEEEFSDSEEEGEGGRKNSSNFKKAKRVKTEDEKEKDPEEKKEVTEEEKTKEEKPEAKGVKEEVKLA
T2 sequence (Q09028 2-425 partner limits assumed): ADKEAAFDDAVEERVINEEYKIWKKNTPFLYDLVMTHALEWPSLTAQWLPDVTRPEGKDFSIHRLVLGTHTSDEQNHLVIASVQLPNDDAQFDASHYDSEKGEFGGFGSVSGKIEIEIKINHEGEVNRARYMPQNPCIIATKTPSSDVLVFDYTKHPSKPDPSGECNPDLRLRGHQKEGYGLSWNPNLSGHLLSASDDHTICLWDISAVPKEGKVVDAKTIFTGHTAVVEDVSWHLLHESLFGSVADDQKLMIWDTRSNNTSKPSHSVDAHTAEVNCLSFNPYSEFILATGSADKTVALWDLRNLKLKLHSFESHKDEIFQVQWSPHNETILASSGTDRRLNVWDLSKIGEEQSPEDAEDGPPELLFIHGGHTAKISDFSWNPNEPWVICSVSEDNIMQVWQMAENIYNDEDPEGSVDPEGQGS
T3 sequence (Q13547 whole entry): as the sequence (Q13547 whole entry) above
T3 sequence (Q09028 2-425 partner): as the sequence (Q09028 2-425 partner limits assumed) above
T1 sequence (Q13547 whole entry): as the sequence (Q13547 whole entry) above
T4 sequence (Q13547 whole entry): as above

## O=C1N[C@@H](Cc2ccccc2)C(=O)N2CCC[C@@H]2C(=O)N[C@@H](CCCCCC(=O)[C@@H]2CO2)C(=O)N[C@H]1Cc1ccccc1 [trapoxin] (cyclo(FF[dP][Aoe]))
[1]
  histone deacetylase activity after treatment: abolished deacetylase activity
[2]
  retention of bovine p46-p50 on K-trap matrix in the presence of inhibitor: not retained
[3]
  competition with [3H]trapoxin binding: completed
[4]
  gene expression and differentiation: alter gene expression and induce certain mammalian cell lines to differentiate
  cell cycle arrest: G1 and G2 phase cell cycle arrest
[4]; listed as Trapoxin
  cell cycle arrest: causes mammalian cells to arrest in the cell cycle
[5]
  mode of inhibition of histone deacetylase activity: “irreversible” inhibitor
  histone deacetylation: inhibit histone deacetylation
[5]; listed as Trapoxin
  histone deacetylation: inhibits histone deacetylation in vivo

## CC(/C=C/C(=O)NO)=C\[C@@H](C)C(=O)c1ccc(N(C)C)cc1 [trichostatin]
[1]
  histone deacetylase activity after treatment: abolished deacetylase activity
[6]
  competition of HD1-F interaction with K-trap affinity matrix: fully competed by nanomolar concentrations
[2]
  retention of bovine p46-p50 on K-trap matrix in the presence of inhibitor: not retained
[7]
  histone deacetylase activity of HD1 immunoprecipitates: inhibited
[3]
  competition with [3H]trapoxin binding: competed
[8]
  detection of HD1 and RbAp48 in K-trap matrix eluates: neither HD1 nor RbAp48 was detected
[4]
  gene expression and differentiation: alter gene expression and induce certain mammalian cell lines to differentiate
  potency relative to sodium butyrate: five orders of magnitude more potent
  cell cycle arrest: G1 and G2 phase cell cycle arrest
[5]
  histone deacetylation: inhibit histone deacetylation
[9]
  histone deacetylase activity of HD1-F immunoprecipitates: sensitive
